Assay results published in patent US8575107B2, “Clusterin derived peptide” (Compugen Ltd., priority 2008, dated 2013).
Where a SMILES comes first, the peptide text is derived from it.

Legend:
[1] = system: A549 cells; assay: MTT viability assay of A549 cells, CGEN-CL1 pre-incubated with helix partner; type: cell-based, human; settings: 150 nM CGEN-CL1 pre-incubated 30 min with equimolar SEQ ID NO:5
Experimental: In order to evaluate whether the two computationally identified α-helices (CGEN-CL1 (SEQ ID NO: 1) and its helix partner (SEQ ID NO: 5)) bind to each other in the Clusterin protein, a co-incubation of the two peptides was analyzed for its ability to eliminate the biological activity of CGEN-CL1.
Pre-incubation for 30 minutes of 150 nM CGEN-CL1 peptide (SEQ ID NO:1) with an equimolar concentration of the helix partner (SEQ ID NO:5) was carried out at room temperature. CGEN-CL1 peptide (SEQ ID NO:1) alone, or the helix partner (SEQ ID NO:5) alone or the pre-incubated CGEN-CL1 peptide (SEQ ID NO:1) with helix partner (SEQ ID NO:5) were used for viability assay of A549 cells, using MTT assay as described in Example 2 herein.

[2] = system: PC3 cells; assay: Cell cycle analysis by propidium iodide staining (FACS) in PC3 cells; type: cell-based; settings: 300 nM or 1 μM CGEN-CL1, PI staining
Experimental: Apoptosis was analyzed either by cell cycle analysis or by PARP cleavage estimation. The amount of cleaved PARP is proportional to the amount of cells undergoing apoptosis (see for example Boulares A. H., et al., 1999, JBC 274:22932-22940).
Cell Cycle Analysis was carried out by Propidium Iodide (PI) Staining. The cells were trypsinized and suspended in DMEM medium+10% FCS. Following centrifugation (1000 rpm, 5 min) the cell pellet was suspended in PBS (1 ml). Fixation with EtOH was performed as follows: cell suspension was transferred into 2.5 ml absolute EtOH (final concentration approx. 70%) by pipetting or by vortexing the suspension at half speed while adding the EtOH) to prevent clustering of cells during the fixation. EtOH fixated cells were incubated on ice for 15 min (or overnight at −20° C.).
Propidium Iodide (PI) staining of the cells was carried out as follows: the cells were pelleted at 1500 rpm for 5 min and then suspended in 500 μl PI-solution (in PBS: 50 μg/ml PI from 50× stock solution (2.5 mg/ml); 0.1 mg/ml RNase A; 0.05% Triton X-100), following incubation for 40 min at 37° C. Then 3 ml of PBS were added, and the cells were pelleted at 1500 rpm, 5 min. The cell pellet was suspended in 500 μl PBS for flow analysis. The flow analysis was carried out using the following approximate settings (on FACSort): FL1: 570 V log; FL2: 470 V linear.

[3] = system: prostate adenocarcinoma cell line PC3; assay: MTT assay, CGEN-CL1 and/or paclitaxel on PC3 cells; type: cell-based
Experimental: (§1) 20 μl of MTT (3-(4,5-Dimethyl-2-thiazolyl)-2,5-diphenyl-2H-tetrazolium bromide) solution (Sigma Cat#M5655, lot#085k5322, 1 gr was dissolved in 200 ml H2O and filtered, giving a final concentration of 5 mg/ml) was added to each well and incubated for 4 hours at 37° C. after which the medium was vacuumed and 100 μl of DMSO was added to each well. Absorbance was measured in an ELISA reader at 492 nm.
A549, PC3 and MCF7 cells were seeded at 6000, 8000 and 10,000 cells per well respectively in 150 μl of media (DMEM medium+5% FBS) in 96 well plates.
Paclitaxel (Sigma T7402, Lot. 036k1217, Mw 853.9, 5 mg dissolved in 585 μl DMSO to a stock concentration of 10 mM, stored at −20° C.) and/or CGEN-CL1 (1 mg dissolved in 250 μl of sodium bi-carbonate to a stock concentration of 4 mg/ml) were added to the wells in 25 μl of medium (final volume of 200 μl) as detailed in Table 3. The relative growth was normalized to controls where neither paclitaxel nor CGEN-CL1 was added to wells.
An MTT assay was performed as described above in Example 2.

[4] = system: PC3 cells; settings: MTT
Experimental: PC3 cells were seeded at 8000 cells per well in 150 μl of media (DMEM medium+5% FBS) in a 96 well plate.

[5] = target: T1, recombinant human clusterin (Homo sapiens, UniProt P10909); assay: BIAcore surface plasmon resonance binding of CGEN-CL1 to clusterin; settings: SPR, 312-5000 nM CGEN-CL1, immobilized clusterin
T1 construct: purchased Biovendor RD172034100
Text: The capability of CGEN-CL1 to specifically bind to recombinant Clusterin protein was investigated using the BIACORE technology, measuring protein-protein interaction and binding affinity. The technology is based on surface plasmon resonance (SPR), an optical phenomenon that enables detection of unlabeled interactants in real time. The SPR-based biosensors can be used in determination of active concentration, screening and characterization in terms of both affinity and kinetics.
Peptide-protein interaction was analyzed using surface plasmon resonance. Analysis of the interaction between CGEN-CL1 [SEQ ID NO:1] and recombinant human clusterin (Biovendor, Modrice, Czech republic cat no: RD172034100) was conducted using the BIAcore biosensor (Pharmacia Biosensor, Uppsala, Sweden). Clusterin was immobilized directly to a CM5 sensor chip (2000 resonance units (RU)). Solution containing five different concentrations of CGEN-CL1 [SEQ ID NO:1] (312, 625, 1250, 2500 and 5000 nM) was injected into the sample chamber of the BIACORE device and the interaction was monitored for 5 minutes using surface plasmon resonance.
As a background, the solutions were also injected onto an empty flow cell with no immobilized ligand and the binding levels achieved were subtracted. Data were analyzed using BIAevaluation software.

[6] = system: SK-MEL melanoma cells; assay: MTT assay, growth of SK-MEL cells treated with CGEN-CL1; type: cell-based
Experimental: CGEN-CL1 as synthesized in Example 1 was analyzed for its ability to induce growth arrest in various cancer cell lines, such as: breast cancer cell line MCF-7 (Adenocarcinoma, Breast, HTB-22, ATCC), PC3 (Adenocarcinoma, Prostate, CRL-1435, ATCC), A549 (carcinoma, Lung, CCL-185, ATCC), HT-29 (Colorectal Adenocarcinoma, Colon, HTB-38, ATCC) and SK-mel 5 (Melanoma, Skin, HTB70, ATCC).
SK-MEL 5 cells were seeded at 10,000 cells per well in 150 μl of media (DMEM medium+5% FBS) in a 96 well plate.
CGEN-CL1 (1 mg dissolved in 2500 of Sodium bi-carbonate to a stock concentration of 4 mg/ml) was added to the wells in 500 of medium (final volume of 2000) as detailed in Table 2. The relative growth was normalized to controls where CGEN-CL1 was not added to wells.
as §1

T1 sequence (P10909 23-449): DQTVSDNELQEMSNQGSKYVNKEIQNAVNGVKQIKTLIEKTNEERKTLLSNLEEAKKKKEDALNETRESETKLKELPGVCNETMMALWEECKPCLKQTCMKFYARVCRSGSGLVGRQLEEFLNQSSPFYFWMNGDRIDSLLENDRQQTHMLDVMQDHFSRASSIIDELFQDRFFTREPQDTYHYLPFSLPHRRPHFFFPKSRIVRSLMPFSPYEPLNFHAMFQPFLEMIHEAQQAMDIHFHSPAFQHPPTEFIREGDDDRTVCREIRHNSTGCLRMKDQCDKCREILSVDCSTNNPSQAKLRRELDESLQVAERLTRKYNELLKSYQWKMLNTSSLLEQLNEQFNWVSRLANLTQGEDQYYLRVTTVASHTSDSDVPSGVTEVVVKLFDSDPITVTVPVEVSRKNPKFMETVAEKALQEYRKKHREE

CC[C@H](C)[C@H](NC(=O)[C@H](CCCNC(=N)N)NC(=O)[C@H](CC(=O)O)NC(=O)CNC(=O)[C@H](CC(N)=O)NC(=O)[C@H](CCSC)NC(=O)[C@H](Cc1c[nH]c2ccccc12)NC(=O)[C@H](Cc1ccccc1)NC(=O)[C@H](Cc1ccc(O)cc1)NC(=O)[C@H](Cc1ccccc1)NC(C)=O)C(=O)N[C@@H](CC(=O)O)C(=O)N[C@@H](CO)C(=O)N[C@@H](CC(C)C)C(=O)N[C@@H](CC(C)C)C(=O)N[C@@H](CCC(=O)O)C(=O)N[C@@H](CC(N)=O)C(=O)N[C@@H](CC(=O)O)C(=O)N[C@@H](CCCNC(=N)N)C(=O)N[C@@H](CCC(N)=O)C(=O)N[C@@H](CCC(N)=O)C(=O)N[C@H](C(N)=O)[C@@H](C)O [CGEN-CL1] (Ac-FYFWMNGDRIDSLLENDRQQT-NH2)
biological effect (growth inhibition) of CGEN-CL1 in the presence of partner helix peptide [1]: abolished
percentage of apoptotic cells [2]: increased the percentage of apoptotic cells
percentage of cells in cell cycle phases [2]: increased the percentage of cells in cell cycle phases G0/G1 and G2/M
CGEN-CL1 concentration that sensitized cells to paclitaxel at sub-minimal doses (as little as) [3]: 7 nM
growth inhibition ([3]; 60 nM CGEN-CL1 combined with 5 nM paclitaxel): same growth inhibition rates as the growth inhibition achieved by 45 nM of paclitaxel alone
growth inhibition relative to 45 nM of paclitaxel alone ([3]; 60 nM CGEN-CL1 combined with 45 nM paclitaxel): 1.5 fold
effect between CGEN-CL1 and paclitaxel ([3]; CGEN-CL1 at different concentrations with different doses of paclitaxel): synergistic effect
concentration evoking the maximal effect (as little as) [4]: 15 nM
binding to parent protein clusterin [5]: binds to its parent protein clusterin in a dose dependent manner
growth inhibition as revealed by cellular viability [6]: evoked growth inhibition
